From PubChem BioAssay (NCI)
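96-well plates; 48 h exposure; 5 concentrations. Endpoints by linear interpolation between flanking doses. Not reached: highest tested concentration assigned. GI50 marks 50% less growth. TGI is the concentration that stops growth completely.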

Experiments:
Assay in all cases: NCI-60 cell line screen, 48 h
[1] = tested on: 786-0 renal
[2] = tested on: A498 renal
[3] = tested on: A549 NSCLC
[4] = tested on: ACHN renal
[5] = tested on: BT-549 breast
[6] = tested on: CAKI-1 renal
[7] = tested on: CCRF-CEM leukemia
[8] = tested on: COLO 205 colon
[9] = tested on: DU-145 prostate
[10] = tested on: EKVX NSCLC
[11] = tested on: HCC-2998 colon
[12] = tested on: HCT-116 colon
[13] = tested on: HCT-15 colon
[14] = tested on: HL-60(TB) leukemia
[15] = tested on: HOP-62 NSCLC
[16] = tested on: HOP-92 NSCLC
[17] = tested on: HS 578T breast
[18] = tested on: HT29 colon
[19] = tested on: IGROV1 ovarian
[20] = tested on: K-562 leukemia
[21] = tested on: KM12 colon
[22] = tested on: LOX IMVI melanoma
[23] = tested on: M14 melanoma
[24] = tested on: MALME-3M melanoma
[25] = tested on: MCF7 breast
[26] = tested on: MDA-MB-231 breast
[27] = tested on: MDA-MB-435
[28] = tested on: NCI-H226 lung
[29] = tested on: NCI-H23 lung
[30] = tested on: NCI-H460 lung
[31] = tested on: NCI-H522 lung
[32] = tested on: NCI/ADR-RES ovarian
[33] = tested on: OVCAR-3 ovarian
[34] = tested on: OVCAR-5 ovarian
[35] = tested on: OVCAR-8 ovarian
[36] = tested on: PC-3 prostate
[37] = tested on: RPMI-8226 leukemia
[38] = tested on: RXF 393 renal
[39] = tested on: SF-268 CNS
[40] = tested on: SF-295 CNS
[41] = tested on: SF-539 CNS
[42] = tested on: SK-MEL-2 melanoma
[43] = tested on: SK-MEL-28 melanoma
[44] = tested on: SK-MEL-5 melanoma
[45] = tested on: SK-OV-3 ovarian
[46] = tested on: SN12C renal
[47] = tested on: SNB-19 CNS
[48] = tested on: SW-620 colon
[49] = tested on: T-47D breast
[50] = tested on: TK-10 renal
[51] = tested on: U251 CNS
[52] = tested on: UACC-257 melanoma
[53] = tested on: UACC-62 melanoma
[54] = tested on: UO-31 renal

## CCOC(=O)c1cc2c(c3ccsc13)C1(C)CCC3c4ccc(OC)cc4CCC3C1C2 (stereo not drawn)
[1]
  GI50: > 100 µM
  TGI: > 100 µM
[2]
  GI50: > 100 µM
  TGI: > 100 µM
[3]
  GI50: > 100 µM
  TGI: > 100 µM
[4]
  GI50: > 100 µM
  TGI: > 100 µM
[5]
  GI50: > 100 µM
  TGI: > 100 µM
[6]
  GI50: > 100 µM
  TGI: > 100 µM
[7]
  GI50: > 100 µM
  TGI: > 100 µM
[8]
  GI50: > 100 µM
  TGI: > 100 µM
[9]
  GI50: > 100 µM
  TGI: > 100 µM
[10]
  GI50: > 100 µM
  TGI: > 100 µM
[11]
  GI50: > 100 µM
  TGI: > 100 µM
[12]
  GI50: > 100 µM
  TGI: > 100 µM
[13]
  GI50: > 100 µM
  TGI: > 100 µM
[14]
  GI50: > 100 µM
  TGI: > 100 µM
[15]
  GI50: > 100 µM
  TGI: > 100 µM
[16]
  GI50: > 100 µM
  TGI: > 100 µM
[17]
  GI50: > 100 µM
  TGI: > 100 µM
[18]
  GI50: 60.3 µM
  TGI: > 100 µM
[19]
  GI50: > 100 µM
  TGI: > 100 µM
[20]
  GI50: > 100 µM
  TGI: > 100 µM
[21]
  GI50: > 100 µM
  TGI: > 100 µM
[22]
  GI50: > 100 µM
  TGI: > 100 µM
[23]
  GI50: > 100 µM
  TGI: > 100 µM
[24]
  GI50: > 100 µM
  TGI: > 100 µM
[25]
  GI50: > 100 µM
  TGI: > 100 µM
[26]
  GI50: > 100 µM
  TGI: > 100 µM
[27]
  GI50: > 100 µM
  TGI: > 100 µM
[28]
  GI50: > 100 µM
  TGI: > 100 µM
[29]
  GI50: > 100 µM
  TGI: > 100 µM
[30]
  GI50: > 100 µM
  TGI: > 100 µM
[31]
  GI50: > 100 µM
  TGI: > 100 µM
[32]
  GI50: > 100 µM
  TGI: > 100 µM
[33]
  GI50: > 100 µM
  TGI: > 100 µM
[34]
  GI50: > 100 µM
  TGI: > 100 µM
[35]
  GI50: > 100 µM
  TGI: > 100 µM
[36]
  GI50: > 100 µM
  TGI: > 100 µM
[37]
  GI50: > 100 µM
  TGI: > 100 µM
[38]
  GI50: > 100 µM
  TGI: > 100 µM
[39]
  GI50: > 100 µM
  TGI: > 100 µM
[40]
  GI50: > 100 µM
  TGI: > 100 µM
[41]
  GI50: > 100 µM
  TGI: > 100 µM
[42]
  GI50: > 100 µM
  TGI: > 100 µM
[43]
  GI50: > 100 µM
  TGI: > 100 µM
[44]
  GI50: > 100 µM
  TGI: > 100 µM
[45]
  GI50: 36 µM
  TGI: > 100 µM
[46]
  GI50: > 100 µM
  TGI: > 100 µM
[47]
  GI50: > 100 µM
  TGI: > 100 µM
[48]
  GI50: > 100 µM
  TGI: > 100 µM
[49]
  GI50: > 100 µM
  TGI: > 100 µM
[50]
  GI50: > 100 µM
  TGI: > 100 µM
[51]
  GI50: > 100 µM
  TGI: > 100 µM
[52]
  GI50: > 100 µM
  TGI: > 100 µM
[53]
  GI50: > 100 µM
  TGI: > 100 µM
[54]
  GI50: > 100 µM
  TGI: > 100 µM
